Measurements: US20260152494A1, “CDK2 INHIBITORS AND METHODS OF USING THE SAME” (Cedilla Therapeutics, Inc., priority 2022, published 2026)

What was measured:
CDK2/Cyclin E1 = biological target: T1, CDK2/Cyclin E1 (Homo sapiens, UniProt P24941); experiment: CDK2/Cyclin E1 Caliper LabChip EZ Reader mobility shift assay; format: biochemical; settings: 2.5 nM CDK2/Cyclin E1, 100 μM ATP, 1.5 μM fluorescent peptide, 30 min preincubation; read-out: Caliper Assay (CDK2/CCNE1): IC50
T1 construct: purchased Eurofins 14-475
Experimental: Example A1: CDK2/Cyclin E1 Caliper Assay
Inhibition of CDK2/Cyclin E1 activity in the presence of compounds of the present disclosure was evaluated using a Caliper LabChip® EZ Reader mobility shift assay. In the assay, CDK2/Cyclin E1 (Eurofins, 14-475) catalyzed the phosphorylation of a fluorescently tagged peptide 5-FAM-QSPKKG-CONH2 (PerkinElmer, FL Peptide 18) which induced a difference in capillary electrophoresis mobility. The peptide substrate and product were measured, and the conversion ratio was used to determine the inhibition (as % activity and IC50 values) of CDK2/Cyclin E1. Reactions contained 50 mM HEPES pH 7.5, 10 mM MgCl2, 1 mM EDTA, 2 mM DTT, 0.01% Brij35, 0.5 mg/mL BSA, 0.1% DMSO, 2.5 nM CDK2/Cyclin E1, 100 μM ATP, and 1.5 μM fluorescent peptide substrate.
Dose titrations of inhibitors in 100% DMSO were combined with 3.25 nM CDK2/Cyclin E1 and 130 μM of ATP in reaction buffer. The mixtures were incubated for 30 minutes before the addition of fluorescent peptide substrate to initiate the kinase reaction. The final conditions were 2.5 nM CDK2/Cyclin E1, 100 μM ATP, and 1.5 μM fluorescent peptide. The reactions were stopped after 100 minutes with the addition of EDTA (400 mM final EDTA concentration). The stopped reactions were analyzed on a Caliper LabChip® EZ Reader II. The conversion ratios were normalized to yield % activity, plotted against compound concentration, and fit to a four-parameter equation to determine the IC50 for each compound.

[1] = test system: Kuramochi cells labeled with mApple-H2B; experiment: IncuCyte cell proliferation assay; format: cell-based; settings: Kuramochi RB-WT cells, 72 hours, cell count normalized to DMSO
Experimental: Example A3: IncuCyte® Cell Proliferation Assay
IncuCyte® assay was used to measure the effect of disclosed compounds on cell proliferation. Fluorescent microscopy images of cells were taken immediately after compound treatment and 72 hours later. Image analysis software was used to obtain cell counts as a function of compound concentration. Kuramochi cells labeled with mApple-H2B were seeded on 384-well assay-ready plates. Plates were placed in an IncuCyte® (Sartorius) and scanned at 0 and 72 hours. IncuCyte® software was used to count the number of fluorescent nuclei in each well. The fold change in cell count from 0 to 72 hours in wells treated with increasing compounds concentrations (10 pts, 1/2 log dilution, 20 μM top concentration) was normalized to DMSO control wells. The normalized cell counts were fit with dose response curves and a GI50 was calculated.

IC50 (CDK2/Cyclin E1) [µM] | Structure (SMILES) | IC50 [1] [µM]
> 10 | CN(C(=O)C1CC2(C1)CN(C(=O)c1cncs1)CC2c1nnc(C(F)(F)c2ccc(Cl)c(Cl)c2)o1)C1CC1 (racemic) [Compound I-16, rac-(R)—N-cyclopropyl-8-(5-((3,4-dichlorophenyl)difluoromethyl)-1,3,4-oxadiazol-2-yl)-N-methyl-6-(thiazole-5-carbonyl)-6-azaspiro[3.4]octane-2-carboxamide] | > 20
> 10 | C[C@@H](OCC1CCCCC1)C(NC(=O)[C@@H]1CCOC12CN(C(=O)[C@H]1CC1(C)C)C2)C(=O)N1CCCCC1 (single isomer, unassigned) [I-29 1st] | > 20
> 10 | C[C@@H](OCC1CCCCC1)[C@H](NC(=O)[C@H]1CCOC12CN(C(=O)[C@H]1CC1(C)C)C2)C(=O)N1CCCCC1 (single isomer, unassigned) [I-29 2nd] | > 20
> 10 | C[C@@H](OCC1CCCCC1)[C@H](NC(=O)[C@@H]1CCOC12CN(C(=O)[C@H]1CC1(C)C)C2)C(=O)N1CCC[C@H](N)C1 (single isomer, unassigned) [I-31 1st] | > 20
> 10 | C[C@@H](OCC1CCCCC1)[C@H](NC(=O)[C@H]1CCOC12CN(C(=O)[C@H]1CC1(C)C)C2)C(=O)N1CCC[C@H](N)C1 (single isomer, unassigned) [I-31 2nd] | > 20
> 10 | C[C@@H](OCC1CCCCC1)[C@H](NC(=O)[C@@H]1CCOC12CN(C(=O)[C@H]1CC1(C)C)C2)C(=O)N1CCC[C@@H](N)C1 (single isomer, unassigned) [I-34 1st] | > 20
> 10 | C[C@@H](OCC1CCCCC1)[C@H](NC(=O)[C@H]1CCOC12CN(C(=O)[C@H]1CC1(C)C)C2)C(=O)N1CCC[C@@H](N)C1 (single isomer, unassigned) [I-34 2nd] | > 20
> 10 | CNC(=O)[C@@H](NC(=O)[C@H]1CCOC12CN(C(=O)[C@H]1CC1(C)C)C2)[C@@H](C)OCC1CCCCC1 (single isomer, unassigned) [I-35 1st] | > 20
> 10 | CNC(=O)[C@@H](NC(=O)[C@@H]1CCOC12CN(C(=O)[C@H]1CC1(C)C)C2)[C@@H](C)OCC1CCCCC1 (single isomer, unassigned) [I-35 2nd] | > 20
> 10 | O=C(c1cc(F)n[nH]1)N1CC(c2nnc(C(F)(F)c3ccc(Cl)c(Cl)c3)o2)C2(CCOCC2)C1 (centres unmarked) [Compound I-1] | > 20
> 10 | O=C(c1cncs1)N1CC(c2nnc(C(F)(F)c3ccc(Cl)c(Cl)c3)o2)C2(CCN(C(=O)[C@H]3CC3(F)F)CC2)C1 (stereo partly drawn) [Compound I-2, (4-(5-((3,4-dichlorophenyl)difluoromethyl)-1,3,4-oxadiazol-2-yl)-2-(thiazole-5-carbonyl)-2,8-diazaspiro[4.5]decan-8-yl)((R)-2,2-difluorocyclopropyl)methanone] | > 20
– | O=C(c1cncs1)N1CC(c2nnc(C(F)(F)c3ccc(Cl)c(Cl)c3)o2)C2(CC(C(=O)N3CCC3)C2)C1 (centres unmarked) [Compound I-3] | > 20
> 10 | CC(=O)N1CC(c2nnc(C(F)(F)c3ccc(Cl)c(Cl)c3)o2)C2(CCOCC2)C1 (centres unmarked) [Compound I-7] | > 20
> 10 | O=C(c1cncs1)N1CC(c2nnc(C(F)(F)c3ccc(Cl)c(Cl)c3)o2)C2(CCS(=O)(=O)CC2)C1 (centres unmarked) [Compound I-8, (4-(5-((3,4-dichlorophenyl)difluoromethyl)-1,3,4-oxadiazol-2-yl)-8,8-dioxido-8-thia-2-azaspiro[4.5]decan-2-yl)(thiazol-5-yl)methanone] | > 20
> 10 | O=C(c1cncs1)N1CC(c2nnc(C(F)(F)c3ccc(Cl)c(Cl)c3)o2)C2(CCNCC2)C1 (centres unmarked) [Compound I-9] | > 20
> 10 | O=C(c1cnccn1)N1CC(c2nnc(C(F)(F)c3ccc(Cl)c(Cl)c3)o2)C2(CCOCC2)C1 (centres unmarked) [Compound I-10] | > 20
> 10 | O=C(c1cncs1)N1CC(c2nnc(C(F)(F)c3ccc(Cl)c(Cl)c3)o2)C2(CCC2)C1 (centres unmarked) [Compound I-11, (8-(5-((3,4-dichlorophenyl)difluoromethyl)-1,3,4-oxadiazol-2-yl)-6-azaspiro[3.4]octan-6-yl)(thiazol-5-yl)methanone] | > 20
> 10 | O=C(c1cncs1)N1CC(c2nnc(C(F)(F)c3ccc(Cl)c(Cl)c3)o2)C2(CCOCC2)C1 (centres unmarked) [Compound I-12, (4-(5-((3,4-dichlorophenyl)difluoromethyl)-1,3,4-oxadiazol-2-yl)-8-oxa-2-azaspiro[4.5]decan-2-yl)(thiazol-5-yl)methanone] | > 20
> 10 | CC(C)(C)OC(=O)N1CCC2(CC1)CN(C(=O)c1cncs1)CC2c1nnc(C(F)(F)c2ccc(Cl)c(Cl)c2)o1 (centres unmarked) [Compound I-14, tert-butyl 4-(5-((3,4-dichlorophenyl)difluoromethyl)-1,3,4-oxadiazol-2-yl)-2-(thiazole-5-carbonyl)-2,8-diazaspiro[4.5]decane-8-carboxylate] | 5 to 20
> 10 | CC1(C)C[C@@H]1C(=O)N1CCC2(CC1)CN(C(=O)c1cncs1)CC2c1nnc(C(F)(F)c2ccc(Cl)c(Cl)c2)o1 (stereo partly drawn) [Compound I-15, (4-(5-((3,4-dichlorophenyl)difluoromethyl)-1,3,4-oxadiazol-2-yl)-2-(thiazole-5-carbonyl)-2,8-diazaspiro[4.5]decan-8-yl)((S)-2,2-dimethylcyclopropyl)methanone] | > 20
1 to 10 | COC[C@H]1CCCN(C(=O)[C@@H](NC(=O)[C@@H]2CN(C(=O)c3cncs3)CC23CN([S+]([O-])C(C)(C)C)C3)[C@@H](C)OCC2CCCCC2)C1 (stereo partly drawn) [Compound I-17, (8S)-2-(tert-butylsulfinyl)-N-((2S,3R)-3-(cyclohexylmethoxy)-1-((S)-3-(methoxymethyl)piperidin-1-yl)-1-oxobutan-2-yl)-6-(thiazole-5-carbonyl)-2,6-diazaspiro[3.4]octane-8-carboxamide] | > 20
1 to 10 | COC[C@H]1CCCN(C(=O)[C@@H](NC(=O)[C@@H]2CN(C(=O)c3cncs3)CC23CN(S(=O)(=O)C2CC2(C)C)C3)[C@@H](C)OCC2CCCCC2)C1 (some centres unmarked) [Compound I-18] | –
> 10 | Cc1ccc(CNC(=O)[C@@H]2CN(C(=O)c3cnn(Cc4ccccc4)c3)CC23CN(C(=O)[C@H]2CC2(C)C)C3)nn1 [Compound I-20] | > 20
0.1 to 1 | COC[C@H]1CCCN(C(=O)[C@@H](NC(=O)[C@H]2CN(C(=O)c3cncs3)CC23CN(C(=O)[C@H]2CC2(C)C)C3)[C@@H](C)OCC2CCCCC2)C1 [Compound I-21] | 5 to 20
> 10 | CC(=O)N1C[C@@H](C(N)=O)C2(C1)CN(C(C)=O)C2 [Compound I-22, (S)-2,6-diacetyl-2,6-diazaspiro[3.4]octane-8-carboxamide] | > 20
> 10 | C[C@@H](OCC1CCCCC1)[C@H](NC(=O)C1CSCC12CN(C(=O)[C@H]1CC1(C)C)C2)C(=O)N1CCCCC1 (stereo partly drawn) [Compound I-23, N-((2S,3R)-3-(cyclohexylmethoxy)-1-oxo-1-(piperidin-1-yl)butan-2-yl)-2-((S)-2,2-dimethylcyclopropane-1-carbonyl)-6-thia-2-azaspiro[3.4]octane-8-carboxamide] | > 20
1 to 10 | CC(=O)N[C@@H](C(=O)NC1CN(C(=O)c2cncs2)CC12CN(C(=O)[C@H]1CC1(C)C)C2)[C@H](C)OCC1CCCCC1 (stereo partly drawn) [Compound I-24, (2R,3S)-2-acetamido-3-(cyclohexylmethoxy)-N-(2-((S)-2,2-dimethylcyclopropane-1-carbonyl)-6-(thiazole-5-carbonyl)-2,6-diazaspiro[3.4]octan-8-yl)butanamide] | > 20
> 10 | CC1(C)C[C@@H]1C(=O)N1CC2(CN(C(=O)c3cnn(Cc4ccccc4)c3)CC2C#N)C1 (stereo partly drawn) [Compound I-40, 6-(1-benzyl-1H-pyrazole-4-carbonyl)-2-((S)-2,2-dimethylcyclopropane-1-carbonyl)-2,6-diazaspiro[3.4]octane-8-carbonitrile] | –
